Test results taken from BindingDB's records for PubMed 1988661 (Merck Sharp & Dohme Research Laboratories, 1991).
Residue numbers refer to the chain shown, from its start. Several values for one entry are separate records, joined by “and”; a condition that tells them apart may be missing. Equal entries are not always repeated. Square brackets hold non-standard residues; d marks the D form. Peptide text beside a SMILES is read from it. dPiz(1,6-dehydro) = O=C(O)[C@H]1CCC=NN1; Pip = O=C(O)[C@@H]1CCCCN1; dPip = O=C(O)[C@H]1CCCCN1

Legend:
[1] = biological target: Vasopressin V2 receptor (Rattus norvegicus, UniProt Q00788)
[2] = biological target: T1, Rat vasopressin-neurophysin (Rattus norvegicus, UniProt Q6LEI5)
T1 sequence (Q6LEI5 whole entry): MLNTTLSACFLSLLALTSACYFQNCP

[3] = biological target: T2, Oxytocin receptor (Macaca mulatta, UniProt P56494)
T2 sequence (P56494 whole entry): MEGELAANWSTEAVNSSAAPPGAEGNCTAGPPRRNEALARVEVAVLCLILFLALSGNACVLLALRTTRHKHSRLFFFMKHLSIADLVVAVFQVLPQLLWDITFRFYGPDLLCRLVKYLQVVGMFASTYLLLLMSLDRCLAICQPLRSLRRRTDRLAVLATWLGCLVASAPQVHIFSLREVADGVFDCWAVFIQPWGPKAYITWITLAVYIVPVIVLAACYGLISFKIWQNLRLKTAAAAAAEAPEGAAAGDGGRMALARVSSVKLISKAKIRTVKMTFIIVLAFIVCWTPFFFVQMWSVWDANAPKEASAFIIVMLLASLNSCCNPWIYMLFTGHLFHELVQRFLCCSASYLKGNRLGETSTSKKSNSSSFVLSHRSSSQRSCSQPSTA

[4] = biological target: T3, Oxytocin receptor (Rattus norvegicus, UniProt P70536)
T3 sequence (P70536 whole entry): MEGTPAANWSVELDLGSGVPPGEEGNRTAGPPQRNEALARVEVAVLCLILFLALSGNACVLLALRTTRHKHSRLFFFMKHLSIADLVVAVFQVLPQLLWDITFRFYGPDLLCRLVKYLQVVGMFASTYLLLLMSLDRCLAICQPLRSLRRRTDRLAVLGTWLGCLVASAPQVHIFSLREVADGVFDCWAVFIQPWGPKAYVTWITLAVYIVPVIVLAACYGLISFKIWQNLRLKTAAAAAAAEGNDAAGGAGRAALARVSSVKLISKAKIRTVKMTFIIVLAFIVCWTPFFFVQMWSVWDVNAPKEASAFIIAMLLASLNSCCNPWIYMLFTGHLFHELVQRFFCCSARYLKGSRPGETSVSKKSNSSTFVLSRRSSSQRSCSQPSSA

[5] = biological target: T4, Oxytocin receptor (Homo sapiens, UniProt P30559)
T4 sequence (P30559 whole entry): T2 sequence (P56494 whole entry) with E4A, T11A, V14A, S16A, C27R, F51L, H69Q, M255V, N355R, T362A

Chain of Vasopressin V2 receptor (Q00788 whole entry): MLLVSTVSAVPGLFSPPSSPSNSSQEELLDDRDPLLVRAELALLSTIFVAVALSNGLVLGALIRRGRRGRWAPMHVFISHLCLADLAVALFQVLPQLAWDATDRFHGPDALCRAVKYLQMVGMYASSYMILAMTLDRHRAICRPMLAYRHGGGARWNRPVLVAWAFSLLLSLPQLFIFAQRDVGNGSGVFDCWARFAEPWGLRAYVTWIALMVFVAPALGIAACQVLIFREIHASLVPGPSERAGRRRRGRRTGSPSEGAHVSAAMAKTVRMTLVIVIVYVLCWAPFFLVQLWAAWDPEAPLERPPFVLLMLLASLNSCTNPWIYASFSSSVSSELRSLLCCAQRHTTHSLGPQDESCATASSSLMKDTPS

Row | Compound | Ki [1] | Ki [2] [nM] | Ki [3] [nM] | Ki [4] | Ki [5] [nM]
1 | CC[C@H](C)[C@@H]1NC(=O)[C@@H](Cc2c[nH]c3ccccc23)NC(=O)[C@@H]2CCCN2C(=O)[C@@H](Cc2c[nH]cn2)NC(=O)[C@@H]2CCCCN2C(=O)[C@H]2CCCCN2C1=O [CAS_196819] (cyclo(I[dPip][Pip][dH]P[dW])) | 3100 nM | 2200 | – | – | –
2 | CCC(C)C1NC(=O)[C@H](Cc2ccccc2)NC(=O)[C@H]2CCCN2C(=O)[C@H](Cc2ccccc2)N(C)C(=O)[C@@H]2CCC=NN2C(=O)[C@H]2CCC=NN2C1=O (some centres undefined) [J325.338D] | – | – | 12 | 7.3 nM and 12 nM | –
3 | CC[C@H](C)[C@@H]1NC(=O)[C@@H](Cc2c[nH]c3ccccc23)NC(=O)[C@@H]2CCCN2C(=O)[C@@H](Cc2cnc[nH]2)NC(=O)[C@@H]2CCCCN2C(=O)[C@H]2CCC=NN2C1=O [J325.349J] (cyclo(I[dPiz(1,6-dehydro)][Pip][dH]P[dW])) | 370 nM | 1200 | 2.3 | 1.3 nM and 2.5 nM | 1.3
4 | CCC(C)C(N)C(=O)N(C(=O)C1CCCN1C(=O)C(CC1=CC=CCC1(C(=O)N1C=CC=CC1)C(=O)N1CCNCC1)NC)C(C=O)Cc1c[nH]c2ccccc12 (centres undefined) [NSC_3083084] | 240 nM | 9500 | 4.7 | 3.4 nM and 4.2 nM | 4.5

The next lines start with the values.

Row | Ki [1] | Ki [2] [nM] | Ki [3] [nM] | Ki [4] | Ki [5] [nM] | Compound
5 | 550 nM | 240 | 33 | 6 nM and 13 nM | 21 | CC[C@H](C)[C@@H]1NC(=O)[C@@H](Cc2ccccc2)NC(=O)[C@@H]2CCCN2C(=O)[C@@H](Cc2ccccc2)N(C)C(=O)[C@H]2CCC=NN2C1=O [J440.774A]
6 | 1100 nM | 550 | 8.1 | 4.3 nM and 6.2 nM | 4.1 | CCC(C)C1NC(=O)[C@H](Cc2ccccc2)NC(=O)[C@H]2CCCN2C(=O)[C@H](Cc2ccccc2)N(C)C(=O)[C@H]2CC(CN(C)C)CNN2C(=O)[C@H]2CCC=NN2C1=O (some centres undefined) [J440.775J]
7 | 810 nM and 320 nM | 760 | 6.4 | 0.7 nM and 0.8 nM | 5.1 | CCC(C)C(NC(=O)C(N)Cc1ccc2ccccc2c1)C(=O)C1(C=O)CCCN1C(=O)C(N)CC1=NC(C(=O)N2CCCCC2)(C(=O)N2CCCCC2)N=C1 (centres undefined) [NSC_188397]
